# Assay results: ChEMBL document CHEMBL5649166, “RIP3 induces apoptosis independent of pronecrotic kinase activity” (Mol Cell, 2014)
# What was measured:
# [1] = molecular target: Mast/stem cell growth factor receptor Kit (Homo sapiens) (UniProt P10721); assay: Residual activity of human c-Kit using poly[Glu:Tyr] (4:1) as substrate at 1 uM in presence of 32P-ATP by Hotspot assay relative to control
# [2] = molecular target: LIM domain kinase 1 (Homo sapiens) (UniProt P53667); assay: Inhibition of human LIMK1 using cofilin 1 as substrate at 1 uM in presence of 32P-ATP by Hotspot assay relative to control; values are per cent of control
# [3] = molecular target: Serine/threonine-protein kinase PAK 2 (Homo sapiens) (UniProt Q13177); assay: Inhibition of human PAK2 using RRRLSFAEPG as substrate at 1 uM in presence of 32P-ATP by Hotspot assay relative to control; values are per cent of control
# [4] = molecular target: Serine/threonine-protein kinase PAK 4 (Homo sapiens) (UniProt O96013); assay: Inhibition of human PAK4 using RRRLSFAEPG as substrate at 1 uM in presence of 32P-ATP by Hotspot assay relative to control; values are per cent of control
# [5] = molecular target: Casein kinase II subunit alpha' (Homo sapiens) (UniProt P19784); assay: Inhibition of human CK2a2 using RRRDDDSDDD as substrate at 1 uM in presence of 32P-ATP by Hotspot assay relative to control; values are per cent of control
# [6] = molecular target: Insulin receptor (Homo sapiens) (UniProt P06213); assay: Inhibition of human IR using poly[Glu:Tyr] (4:1) as substrate at 1 uM in presence of 32P-ATP by Hotspot assay relative to control; values are per cent of control
# [7] = molecular target: Fibroblast growth factor receptor 3 (Homo sapiens) (UniProt P22607); assay: Inhibition of human FGFR3 using poly[Glu:Tyr] (4:1) as substrate at 1 uM in presence of 32P-ATP by Hotspot assay relative to control; values are per cent of control
# [8] = molecular target: T1, Mitogen-activated protein kinase kinase kinase 3 (Homo sapiens) (UniProt Q99759); assay: Inhibition of human MEKK3 using myelin basic protein as substrate at 1 uM in presence of 32P-ATP by Hotspot assay relative to control; values are per cent of control
# T1 sequence (whole entry): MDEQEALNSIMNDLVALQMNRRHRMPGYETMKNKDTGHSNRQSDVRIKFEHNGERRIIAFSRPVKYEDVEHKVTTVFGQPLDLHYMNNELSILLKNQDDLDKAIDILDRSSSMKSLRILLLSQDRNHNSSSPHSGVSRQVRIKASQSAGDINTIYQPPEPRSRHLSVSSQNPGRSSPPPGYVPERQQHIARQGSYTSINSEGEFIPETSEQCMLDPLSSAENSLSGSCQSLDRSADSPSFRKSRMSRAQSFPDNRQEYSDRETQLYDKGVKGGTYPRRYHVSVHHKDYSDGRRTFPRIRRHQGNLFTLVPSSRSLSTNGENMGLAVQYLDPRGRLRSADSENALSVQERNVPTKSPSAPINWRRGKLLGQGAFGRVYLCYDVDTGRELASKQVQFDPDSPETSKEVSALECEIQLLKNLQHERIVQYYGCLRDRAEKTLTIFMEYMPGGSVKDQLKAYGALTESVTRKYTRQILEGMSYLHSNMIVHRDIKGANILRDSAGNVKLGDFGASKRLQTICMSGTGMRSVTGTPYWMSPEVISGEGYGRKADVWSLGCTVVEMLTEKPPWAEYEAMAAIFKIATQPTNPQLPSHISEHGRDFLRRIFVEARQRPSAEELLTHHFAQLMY
# [9] = molecular target: T2, Serine/threonine-protein kinase TAO1 (Homo sapiens) (UniProt Q7L7X3); assay: Inhibition of human TAOK1 using myelin basic protein as substrate at 1 uM in presence of 32P-ATP by Hotspot assay relative to control; values are per cent of control
# T2 sequence (whole entry): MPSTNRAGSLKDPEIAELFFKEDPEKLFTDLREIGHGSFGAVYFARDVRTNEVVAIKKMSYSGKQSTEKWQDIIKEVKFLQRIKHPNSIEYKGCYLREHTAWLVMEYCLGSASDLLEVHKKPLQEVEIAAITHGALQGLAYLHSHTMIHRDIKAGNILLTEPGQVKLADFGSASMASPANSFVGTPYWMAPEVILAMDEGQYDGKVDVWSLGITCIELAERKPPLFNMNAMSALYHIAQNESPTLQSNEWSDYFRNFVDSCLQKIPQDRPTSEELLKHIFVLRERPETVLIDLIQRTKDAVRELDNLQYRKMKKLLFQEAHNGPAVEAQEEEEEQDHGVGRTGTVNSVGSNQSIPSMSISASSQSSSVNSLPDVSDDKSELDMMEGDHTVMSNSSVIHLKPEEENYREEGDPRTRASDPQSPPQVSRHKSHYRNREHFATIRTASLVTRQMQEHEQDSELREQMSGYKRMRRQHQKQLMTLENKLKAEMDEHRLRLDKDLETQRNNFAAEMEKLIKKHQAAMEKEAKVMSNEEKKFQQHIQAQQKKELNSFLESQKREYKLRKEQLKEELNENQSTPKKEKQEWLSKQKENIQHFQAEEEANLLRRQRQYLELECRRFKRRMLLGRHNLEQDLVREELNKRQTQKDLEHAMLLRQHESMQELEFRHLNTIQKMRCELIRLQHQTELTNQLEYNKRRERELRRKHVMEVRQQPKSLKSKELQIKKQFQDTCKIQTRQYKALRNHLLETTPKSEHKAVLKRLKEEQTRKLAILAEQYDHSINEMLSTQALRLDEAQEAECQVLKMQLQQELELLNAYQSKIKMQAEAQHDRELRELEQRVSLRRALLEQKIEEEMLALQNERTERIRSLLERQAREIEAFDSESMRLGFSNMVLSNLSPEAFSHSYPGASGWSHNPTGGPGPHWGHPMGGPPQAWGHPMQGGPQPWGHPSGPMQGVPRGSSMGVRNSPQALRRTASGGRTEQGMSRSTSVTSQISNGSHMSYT
# [10] = molecular target: Mitogen-activated protein kinase kinase kinase 20 (Homo sapiens) (UniProt Q9NYL2); assay: Inhibition of human ZAK/MLTK using myelin basic protein as substrate at 1 uM in presence of 32P-ATP by Hotspot assay relative to control; values are per cent of control
# Mitogen-activated protein kinase kinase kinase 20 (Homo sapiens), sequence (Q9NYL2 2-800 limits assumed): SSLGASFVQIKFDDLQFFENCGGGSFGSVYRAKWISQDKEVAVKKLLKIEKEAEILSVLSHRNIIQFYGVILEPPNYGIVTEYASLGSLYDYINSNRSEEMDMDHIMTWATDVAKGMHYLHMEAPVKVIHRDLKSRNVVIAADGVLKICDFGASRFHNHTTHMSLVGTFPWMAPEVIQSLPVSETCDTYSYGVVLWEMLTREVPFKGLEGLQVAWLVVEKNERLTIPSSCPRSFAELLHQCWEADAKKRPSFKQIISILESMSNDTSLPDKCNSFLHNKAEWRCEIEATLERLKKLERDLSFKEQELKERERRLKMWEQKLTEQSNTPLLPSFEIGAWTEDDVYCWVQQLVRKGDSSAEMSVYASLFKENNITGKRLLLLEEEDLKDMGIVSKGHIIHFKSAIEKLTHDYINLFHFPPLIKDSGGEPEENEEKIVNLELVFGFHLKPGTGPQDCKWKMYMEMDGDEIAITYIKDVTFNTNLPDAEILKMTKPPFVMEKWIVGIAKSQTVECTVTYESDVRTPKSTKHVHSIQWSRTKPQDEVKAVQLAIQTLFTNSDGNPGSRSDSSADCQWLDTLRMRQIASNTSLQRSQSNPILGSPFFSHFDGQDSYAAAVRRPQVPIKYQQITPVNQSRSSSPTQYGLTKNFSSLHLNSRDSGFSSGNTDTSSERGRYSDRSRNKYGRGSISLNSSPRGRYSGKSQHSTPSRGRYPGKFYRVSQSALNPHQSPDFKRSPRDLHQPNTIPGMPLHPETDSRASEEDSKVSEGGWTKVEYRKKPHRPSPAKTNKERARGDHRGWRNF
# Fibroblast growth factor receptor 3 (Homo sapiens), sequence (P22607 23-806 limits assumed): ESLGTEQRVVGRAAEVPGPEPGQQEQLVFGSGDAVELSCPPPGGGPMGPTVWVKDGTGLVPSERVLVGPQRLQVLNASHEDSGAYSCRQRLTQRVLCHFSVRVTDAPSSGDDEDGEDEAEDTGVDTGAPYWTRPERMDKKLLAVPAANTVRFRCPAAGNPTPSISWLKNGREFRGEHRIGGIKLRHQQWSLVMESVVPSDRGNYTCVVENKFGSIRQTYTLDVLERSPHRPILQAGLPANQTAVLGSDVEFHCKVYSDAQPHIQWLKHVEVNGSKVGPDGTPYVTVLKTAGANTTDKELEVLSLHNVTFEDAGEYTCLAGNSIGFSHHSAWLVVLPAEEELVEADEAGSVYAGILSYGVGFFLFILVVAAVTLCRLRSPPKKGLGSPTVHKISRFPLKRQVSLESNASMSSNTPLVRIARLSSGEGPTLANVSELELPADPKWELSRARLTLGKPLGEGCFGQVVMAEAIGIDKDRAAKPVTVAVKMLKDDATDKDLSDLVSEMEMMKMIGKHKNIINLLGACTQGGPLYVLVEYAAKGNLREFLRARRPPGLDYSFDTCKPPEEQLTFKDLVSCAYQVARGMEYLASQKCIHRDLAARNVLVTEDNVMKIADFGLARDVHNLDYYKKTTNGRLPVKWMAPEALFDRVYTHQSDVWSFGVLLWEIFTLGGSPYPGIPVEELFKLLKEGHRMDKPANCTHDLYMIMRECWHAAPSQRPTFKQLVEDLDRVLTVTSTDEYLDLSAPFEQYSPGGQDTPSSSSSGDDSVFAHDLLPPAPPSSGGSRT
# LIM domain kinase 1 (Homo sapiens), sequence (P53667 whole entry, looked up, the tested form may be a part): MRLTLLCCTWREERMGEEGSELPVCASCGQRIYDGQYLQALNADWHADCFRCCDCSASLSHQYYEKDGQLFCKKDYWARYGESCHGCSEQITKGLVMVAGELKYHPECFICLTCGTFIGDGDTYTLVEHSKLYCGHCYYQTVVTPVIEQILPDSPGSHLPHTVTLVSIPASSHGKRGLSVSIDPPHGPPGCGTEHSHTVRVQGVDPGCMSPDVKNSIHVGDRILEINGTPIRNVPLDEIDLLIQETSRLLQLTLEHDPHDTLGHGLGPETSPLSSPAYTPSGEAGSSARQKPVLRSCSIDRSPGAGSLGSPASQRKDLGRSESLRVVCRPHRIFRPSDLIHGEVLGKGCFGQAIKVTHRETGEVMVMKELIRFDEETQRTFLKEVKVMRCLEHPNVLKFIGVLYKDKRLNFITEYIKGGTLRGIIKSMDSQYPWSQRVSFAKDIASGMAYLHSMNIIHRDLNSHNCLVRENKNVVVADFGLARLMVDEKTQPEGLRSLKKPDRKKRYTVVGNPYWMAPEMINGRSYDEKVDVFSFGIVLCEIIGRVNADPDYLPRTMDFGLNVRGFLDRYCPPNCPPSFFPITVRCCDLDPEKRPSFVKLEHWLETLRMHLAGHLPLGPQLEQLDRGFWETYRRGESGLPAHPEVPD
# Mast/stem cell growth factor receptor Kit (Homo sapiens), sequence (P10721 whole entry, the tested form may be a part): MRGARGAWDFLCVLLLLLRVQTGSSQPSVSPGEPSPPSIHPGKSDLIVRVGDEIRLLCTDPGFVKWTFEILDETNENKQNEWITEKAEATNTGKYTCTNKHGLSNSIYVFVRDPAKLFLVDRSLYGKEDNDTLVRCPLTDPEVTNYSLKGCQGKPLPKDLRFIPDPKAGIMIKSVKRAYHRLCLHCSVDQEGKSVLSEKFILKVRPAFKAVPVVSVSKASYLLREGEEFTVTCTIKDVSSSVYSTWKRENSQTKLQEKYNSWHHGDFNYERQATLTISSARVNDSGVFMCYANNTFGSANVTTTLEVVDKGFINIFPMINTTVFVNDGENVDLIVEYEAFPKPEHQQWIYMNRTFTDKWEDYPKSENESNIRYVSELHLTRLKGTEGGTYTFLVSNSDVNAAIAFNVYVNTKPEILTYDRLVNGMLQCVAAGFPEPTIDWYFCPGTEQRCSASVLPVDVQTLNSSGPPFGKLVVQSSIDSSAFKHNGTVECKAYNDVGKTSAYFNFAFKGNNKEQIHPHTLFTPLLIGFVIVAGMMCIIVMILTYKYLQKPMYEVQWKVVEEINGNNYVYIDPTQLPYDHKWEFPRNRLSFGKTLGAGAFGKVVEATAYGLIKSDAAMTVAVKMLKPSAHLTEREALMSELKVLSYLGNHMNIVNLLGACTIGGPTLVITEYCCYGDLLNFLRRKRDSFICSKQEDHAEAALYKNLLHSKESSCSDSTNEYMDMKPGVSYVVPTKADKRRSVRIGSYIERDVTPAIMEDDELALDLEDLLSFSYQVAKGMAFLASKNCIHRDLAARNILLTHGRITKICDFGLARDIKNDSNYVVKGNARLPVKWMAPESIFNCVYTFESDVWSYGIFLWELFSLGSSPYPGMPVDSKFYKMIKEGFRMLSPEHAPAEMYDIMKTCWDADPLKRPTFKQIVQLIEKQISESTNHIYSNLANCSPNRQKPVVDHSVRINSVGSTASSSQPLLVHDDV
# Casein kinase II subunit alpha' (Homo sapiens), sequence (P19784 whole entry, looked up): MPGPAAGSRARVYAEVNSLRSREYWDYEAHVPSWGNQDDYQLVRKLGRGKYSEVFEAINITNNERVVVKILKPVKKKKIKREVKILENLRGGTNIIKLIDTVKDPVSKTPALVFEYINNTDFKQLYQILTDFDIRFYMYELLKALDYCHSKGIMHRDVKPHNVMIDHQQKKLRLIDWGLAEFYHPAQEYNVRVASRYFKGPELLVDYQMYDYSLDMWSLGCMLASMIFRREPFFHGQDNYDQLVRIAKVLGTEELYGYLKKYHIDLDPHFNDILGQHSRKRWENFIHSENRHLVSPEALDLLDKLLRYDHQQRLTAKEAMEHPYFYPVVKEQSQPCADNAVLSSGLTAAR
# Insulin receptor (Homo sapiens), sequence (P06213 28-758 limits assumed): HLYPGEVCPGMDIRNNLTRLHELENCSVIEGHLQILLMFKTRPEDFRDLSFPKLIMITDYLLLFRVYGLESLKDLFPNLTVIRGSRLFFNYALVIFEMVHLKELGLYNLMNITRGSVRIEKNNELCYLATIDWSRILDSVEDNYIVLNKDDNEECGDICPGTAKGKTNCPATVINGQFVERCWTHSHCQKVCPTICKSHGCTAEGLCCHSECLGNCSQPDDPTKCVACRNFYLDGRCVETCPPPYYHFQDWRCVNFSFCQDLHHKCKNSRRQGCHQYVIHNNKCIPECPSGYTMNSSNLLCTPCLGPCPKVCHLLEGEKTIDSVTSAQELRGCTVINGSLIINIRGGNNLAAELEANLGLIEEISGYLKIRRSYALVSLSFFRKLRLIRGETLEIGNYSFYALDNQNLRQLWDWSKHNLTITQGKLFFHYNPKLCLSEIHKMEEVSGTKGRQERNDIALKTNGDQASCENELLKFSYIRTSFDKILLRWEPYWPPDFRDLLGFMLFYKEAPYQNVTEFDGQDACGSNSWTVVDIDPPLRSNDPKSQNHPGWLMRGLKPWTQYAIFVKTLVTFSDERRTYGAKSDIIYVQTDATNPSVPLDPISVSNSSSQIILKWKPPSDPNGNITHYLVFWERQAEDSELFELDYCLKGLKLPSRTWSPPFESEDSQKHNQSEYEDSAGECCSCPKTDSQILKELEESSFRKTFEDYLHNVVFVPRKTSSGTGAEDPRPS
# Insulin receptor (Homo sapiens), sequence (P06213 763-1382 limits assumed): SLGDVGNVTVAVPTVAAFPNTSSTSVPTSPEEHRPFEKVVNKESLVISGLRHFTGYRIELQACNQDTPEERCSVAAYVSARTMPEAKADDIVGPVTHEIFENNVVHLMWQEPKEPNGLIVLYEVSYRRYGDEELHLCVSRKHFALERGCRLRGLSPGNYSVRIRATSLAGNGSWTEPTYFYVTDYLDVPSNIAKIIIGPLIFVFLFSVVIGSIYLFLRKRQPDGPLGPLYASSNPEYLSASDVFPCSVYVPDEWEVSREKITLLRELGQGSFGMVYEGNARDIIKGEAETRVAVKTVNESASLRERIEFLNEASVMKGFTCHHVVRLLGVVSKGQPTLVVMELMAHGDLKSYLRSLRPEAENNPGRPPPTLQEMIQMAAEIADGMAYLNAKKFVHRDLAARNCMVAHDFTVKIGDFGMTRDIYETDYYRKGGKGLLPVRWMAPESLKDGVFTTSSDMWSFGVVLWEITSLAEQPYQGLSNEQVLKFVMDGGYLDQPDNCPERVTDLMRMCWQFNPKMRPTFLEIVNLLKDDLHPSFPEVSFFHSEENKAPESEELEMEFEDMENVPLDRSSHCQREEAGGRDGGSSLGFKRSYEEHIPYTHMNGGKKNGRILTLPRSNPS
Compound,residual activity [1],residual activity [2],residual activity [3],residual activity [4],residual activity [5],residual activity [6],residual activity [7],residual activity [8],residual activity [9],residual activity [10]
CC(C)S(=O)(=O)c1ccc2nccc(Nc3ccc4scnc4c3)c2c1,95.8%,93%,101%,99%,97.1%,90.4%,94.3%,92.3%,93.8%,94.5%
Cc1cc(-c2cnc(N)c3c(-c4ccc5scnc5c4)csc23)n(C)n1,41.5%,65.6%,96.2%,100%,88.9%,101%,65%,95%,92.6%,21.2%
CNC(=O)c1ccc2c(c1)ncn2-c1ccc(CC(=O)OC(C)(C)C)cc1,74.4%,72.9%,91%,99.6%,96.3%,90%,65.3%,96%,98.8%,41.7%
